Measured values from article PMC7988117, “OMN6 a novel bioengineered peptide for the treatment of multidrug resistant Gram negative bacteria” (Scientific Reports, 2021).
Converted amounts (≈) assume the structure as drawn. Read-outs that look alike come from different tables or passages of the source. Bridge positions count the residues as written; N and C are the ends. Peptide text beside a SMILES is read from it.

Experiments:
Enterococcus faecium = details: E. faecium ATCC BAA-2319 (MDR/Van-R); CLSI broth microdilution, Muller-Hinton broth, 18–24 h, 35 ± 2 °C
Protocol: (§1) This experiment was conducted by Omnix Medical, by JMI Laboratories (North Liberty, IA, USA) and by Aptuit (Verona) S.r.l. (Italy), an Evotec Company. All studies were performed according to Clinical and Laboratory Standards Institute guidelines[30] for the application of the broth microdilution method. Reference strains from American Type Culture Collection (ATCC) and clinical isolates from the Evotec EvostrAIn and the JMI Laboratories SENTRY surveillance program culture collections (Acinetobacter baumannii: ACC 00445, ACC 00527, ACC 00535, ATCC 17978, ATCC 19606, ATCC BAA-1793, ACC 01076, ACC 01077, NCTC 13420, JMI #1088100 and JMI #1001007; Klebsiella pneumoniae: ATCC 43816 and ATCC BAA-1705; Escherichia coli: ACC 01001 and ATCC 25922; Staphylococcus aureus: ATCC 29213, ATCC BAA-44 and ATCC 33591; Bacillus cereus: ATCC 14579; Enterococcus faecalis: ATCC 29212; Enterococcus faecium: ATCC BAA-2319) were used. The antimicrobial activity of OMN6 was determined by 12 serial two-fold dilutions in water of the 100-fold highest compound solution; 1 µL of each well was transferred into 96 microtiter plates (final concentration: 256–0.12 µg/mL). In most strains, same procedure was used to determine the colistin antimicrobial activity (final concentration: 32–0.015 µg/mL). Bacterial strains were sub-cultured on the agar plates and incubated for 18–24 h at 35 ± 2 °C in ambient air. Following incubation, the inoculum was prepared from isolated colonies and adjusted to 0.5 McFarland turbidity standard (1 to 2 × 10^8 colony-forming units/mL) in 0.9% saline. Bacterial suspension was then diluted 1:200 in Muller-Hinton broth (from BD; Becton, Dickinson and Company, Franklin Lakes, NJ, USA) and within 15 min 100 µL/well were dispensed. Growth-control wells and sterility-check wells (uninoculated well) were present in each plate. Plates were incubated for 18–24 h at 35 ± 2 °C in ambient air. […] The antimicrobial activity to other antibiotics on most bacterial strains was determined by Evotec using the antimicrobial sensitive test from the VITEK 2 automated microbiology system (bioMérieux SA, Marcy l'Etoile, France; data presented in Table S1), or by ATCC according to CLSI (Clinical and Laboratory Standards Institute) guidelines[30]

Klebsiella pneumoniae = details: CLSI broth microdilution, Muller-Hinton broth, 18–24 h, 35 ± 2 °C
Protocol: as §1

Acinetobacter baumannii = details: for MIC: CLSI broth microdilution, Muller-Hinton broth, 18–24 h, 35 ± 2 °C
Protocol: as §1

Staphylococcus aureus = details: CLSI broth microdilution, Muller-Hinton broth, 18–24 h, 35 ± 2 °C
Protocol: as §1

Gram-negative bacteria = details: summary of Table 1, regardless of resistance profile
Protocol: as §1

Escherichia coli = details: CLSI broth microdilution, Muller-Hinton broth, 18–24 h, 35 ± 2 °C
Protocol: as §1

Bacillus cereus = details: B. cereus ATCC 14579; CLSI broth microdilution, Muller-Hinton broth, 18–24 h, 35 ± 2 °C
Protocol: as §1

Enterococcus faecalis = details: E. faecalis ATCC 29212 (Van-S); CLSI broth microdilution, Muller-Hinton broth, 18–24 h, 35 ± 2 °C
Protocol: as §1

[1] = test system: Acinetobacter baumannii clinical isolates; assay: Time-kill studies; assay type: cell-based
Protocol: Time-kill experiments were performed by JMI Laboratories (North Liberty, IA, USA) as described in chapter 5.14 of the Clinical Microbiology Procedures Handbook[32] and the CLSI M26-A[33] document. Two Acinetobacter baumannii clinical isolates (JMI colistin-sensitive strain #1088100 and colistin-resistant strain #1001007) were used for this study. MIC values that were determined in Difco Muller Hinton Broth (BD) for OMN6 and colistin as described above, were used as the baseline values during time-kill testing. In the time-kill experiments, OMN6 and colistin were tested in Difco Muller Hinton Broth. The time-kill cultures were sampled at 0, 2, 4, 8, and 24 h after compound addition. The number of CFU/mL in each culture was measured by plating 100 μL of serial dilutions onto blood agar plates. Colonies were counted after 48 h of growth at 35 °C. Time-kill curves were generated by plotting CFU/mL as log10 values over time. The limit of detection was 10 CFU/mL. Bactericidal activity was defined as a ≥ 99.9% reduction (i.e., a ≥ 3 log10 decrease) in the number of input bacterial cells at any arbitrary timepoint.

CC[C@H](C)[C@@H]1NC(=O)CNC(=O)[C@H](CC(=O)O)NC(=O)[C@H](CCCNC(=N)N)NC(=O)[C@H]([C@@H](C)CC)NC(=O)[C@H](CC(N)=O)NC(=O)[C@H](CCC(N)=O)NC(=O)CNC(=O)[C@H](C(C)C)NC(=O)[C@H](CCCCN)NC(=O)[C@H](CCC(=O)O)NC(=O)[C@H]([C@@H](C)CC)NC(=O)[C@H](CCCCN)NC(=O)[C@H](CCCCN)NC(=O)[C@H](Cc2ccccc2)NC(=O)[C@H](CC(C)C)NC(=O)[C@H](CCCCN)NC(=O)[C@H](Cc2c[nH]c3ccccc23)NC(=O)[C@H](CCCCN)NC(=O)[C@@H](NC(=O)[C@@H](N)CCSC)CSSC[C@@H](C(N)=O)NC(=O)[C@H](CCCCN)NC(=O)[C@H](C)NC(=O)[C@H]([C@@H](C)CC)NC(=O)[C@H](CCC(N)=O)NC(=O)[C@H]([C@@H](C)O)NC(=O)[C@H](C)NC(=O)[C@H](CCC(N)=O)NC(=O)CNC(=O)[C@H](C(C)C)NC(=O)[C@H](C(C)C)NC(=O)[C@H](C)NC(=O)[C@H](C(C)C)NC(=O)[C@H](C)NC(=O)[C@@H]2CCCN2C(=O)CNC(=O)[C@H](C)NC(=O)[C@H](CCCCN)NC(=O)[C@H]([C@@H](C)CC)NC1=O [OMN6] (H-MCKWKLFKKIEKVGQNIRDGIIKAGPAVAVVGQATQIAKC-NH2; disulfide 2-40; N-terminus assumed)
MIC (Enterococcus faecium): > 256 µg/mL | MIC (Klebsiella pneumoniae; K. pneumoniae ATCC 43816 (S)): 16 µg/mL (≈ 3.69 µM) | MIC (Klebsiella pneumoniae; K. pneumoniae ATCC BAA-1705 (MDR)): 16 µg/mL (≈ 3.69 µM) | MIC (Acinetobacter baumannii; A. baumannii ACC 00445 (MDR/Col-S)): 4 µg/mL (≈ 0.922 µM) | MIC (Acinetobacter baumannii; A. baumannii ACC 00527 (MDR/Col-R)): 4 µg/mL (≈ 0.922 µM) | MIC (Acinetobacter baumannii; A. baumannii ACC 00535 (MDR/Col-S)): 4 µg/mL (≈ 0.922 µM) | MIC (Acinetobacter baumannii; A. baumannii ACC 01076 (MDR/Col-R)): 8 µg/mL (≈ 1.84 µM) | MIC (Acinetobacter baumannii; A. baumannii ACC 01077 (MDR/Col-R)): 4 µg/mL (≈ 0.922 µM) | MIC (Acinetobacter baumannii; A. baumannii ATCC 17978 (S)): 8 µg/mL (≈ 1.84 µM) | MIC (Acinetobacter baumannii; A. baumannii ATCC 19606 (S)): 8 µg/mL (≈ 1.84 µM) | MIC (Acinetobacter baumannii; A. baumannii ATCC BAA-1793 (MDR)): 8 µg/mL (≈ 1.84 µM) | MICs of the A. baumannii strains (Acinetobacter baumannii; summary of Table 1, sensitive and multidrug resistant strains): 4 to 8 µg/mL | MIC (Staphylococcus aureus; S. aureus ATCC 29213 (MSSA)): > 256 µg/mL | MIC (Staphylococcus aureus; S. aureus ATCC 33591 (MRSA)): > 256 µg/mL | MIC (Staphylococcus aureus; S. aureus ATCC BAA-44 (MDR/MRSA)): > 256 µg/mL | MIC on Gram-negative bacteria (all tested strains) (Gram-negative bacteria): ≤ 32 µg/mL | MIC (Escherichia coli; E. coli ACC 01001 (mcr-1)): 32 µg/mL (≈ 7.37 µM) | MIC (Escherichia coli; E. coli ATCC 25922 (S)): 16 µg/mL (≈ 3.69 µM) | MIC (Bacillus cereus): > 256 µg/mL | MIC (Enterococcus faecalis): > 256 µg/mL | Bactericidal pattern on colistin-resistant strain ([1]; colistin-resistant A. baumannii JMI #1001007, similar timeframe and concentrations as on the colistin-sensitive strain): retained its bactericidal pattern | Concentrations with bactericidal effect after 2 h of incubation ([1]; colistin-sensitive A. baumannii JMI #1088100, Difco Muller Hinton Broth, bactericidal = ≥ 3 log10 decrease): > 8 µg/mL | Re-growth during the 24 h timeframe ([1]; colistin-sensitive A. baumannii JMI #1088100, Difco Muller Hinton Broth, sampled 0, 2, 4, 8, 24 h): No re-growth
